Assay results as given in patent US12174172B2, “Method for evaluating the efficacy of a composition in reducing the effects of cancer therapeutics on skin” (Johnson & Johnson Consumer Inc., priority 2019, dated 2024).
Values joined by “and” are separate entries in the source; they are usually repeats but may differ in a detail not shown here. Identical values can stand only once. “Also recorded” adds a separate entry of the source. Like-named read-outs stand apart in the source and are kept apart here. Marks after values point to notes of the source that are not given here.

What was measured:
[1] = system: Human epidermal keratinocytes cells (HPEKs), 3D micro-epidermis; assay: 3D micro-epidermis model (EpiScreen): epidermis size, toxicity, dose response, classification; type: cell-based; conditions: for effect on desmoglein-1, involucrin and filaggrin expression (dose dependence): 3, 10, 30 nM; for Dose in response: variation of protein expression at 3, 10, 30 nM (EGFRi) or 3, 10, 30, 100 nM (VEGFRi); for Dose in response / Dose/response: markers in brackets; for Dose/response: supplementary table, per run (1st or 2nd Run); for impact on all measured parameters / epidermis development: micro-epidermis model;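 as to all read-outs here: keratinocytes on micropatterned discs in high-calcium medium, drug exposure for three days, then fixation and confocal high-content imaging of actin, nuclei and a marker, vehicle DMSO-matched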
involucrin (IVL) = assay: 3D micro-epidermis model (EpiScreen): involucrin immunostaining; type: cell-based, human; conditions: for IVL expression: Table 1 summary; for activation at 0.1 µM / activation at 1 µM: Homo sapiens, 72 h
Procedure: (§1) To assess the effects of such therapy molecules on the epidermis, keratinocytes were grown in the presence of kinase inhibitors during 3 days with high calcium concentration to induce keratinocyte differentiation and generate a 3D-stratified differentiated epidermis. Drug impact on the epidermis development was assessed via different keratinocyte markers including: • Ki-67, an universally expressed protein among proliferating cells and absent in the quiescent cells; • Filaggrin, a filament-associated protein that binds to keratin fibers and is a marker of terminal differentiation; • Desmoglein-1, a component of desmosomes and differentiation marker expressed in all epidermal layer above the basal layer; and • Involucrin, an early differentiation marker expressed in the spinous and granular layers and a protein precursor of the epidermal cornified envelope.
(§2) Human epidermal keratinocytes cells (HPEKs) from a juvenile donor (CellnTec, Switzerland) are cultured in flasks in proliferation medium. Keratinocytes are seeded at passage 6 into EpiScreen™ (Abzena, Cambridge, UK) plates containing collagen 1 coated disc micropatterns (CYTOO, Grenoble, France). Four hours later, unattached cells are washed off and a high calcium medium is added to induce keratinocytes differentiation. The day after, keratinocytes are treated with screening compounds, and Trichostatin A is added at 0.3 μM as an internal positive control. After three days of treatment, micro-epidermises are fixed with a formalin solution 10% for 30 minutes, then permeabilized with 0.1% Triton. Several immunostainings are performed: actin (Acti-Stain 555, PHDH1, Cytoskeleton), nuclei (Hoechst, H3570, Invitrogen), and one biomarker of interest per well either anti-involucrin (HPA055211, Sigma), anti-filaggrin (HPA030189, Sigma) or anti-desmoglein-1 (HPA022128, Sigma). Antibodies are added overnight at 4° C. before staining with secondary antibody, anti-rabbit 488 (711-545-152, Jackson) for 2 hours at room temperature.
(§3) Images of each well are acquired with the Operetta HCS platform (Perkin Elmer, Waltham, MA, USA) using a ×10 objective in confocal mode in eight z-planes from 2 μm to 44 μm in steps of 6 μm in each of the 3 channels: actin, nuclei, and one biomarker of interest. The first step of the image analysis consists in detecting micro-epidermis structures on the first z-plane by segmenting the actin staining. Micro-epidermis structures are validated based on several area and roundness min and max criteria. Then, the area of each biomarker staining is measured inside the valid micro-epidermis masks through each z-plane. For all homogeneous biomarker staining, their intensity through the different planes is measured.
(§4) The actin network of each micro-epidermis is analyzed in each z-plane in order to determine the average 3D structure edges. The biomarker intensity is measured in each z-plane for each structure, and then averaged with the other results generated in the same well. Based on the data generated in the two previous steps, an average 3D reconstruction image is generated. It consists of a meshwork that delimits the structure edges, and a color scaled volume that corresponds to the biomarkers distribution and expression.
The effect of 8 oncology molecules, selected from first generation EGFRi and pan-kinase inhibitors which mostly target VEGFR and second and third generation therapies targeting main mutations relating to first generation treatment resistance, were assessed in vitro using a 3D micro-epidermis model. […] The drug impact was assessed by analysis of tissue size and keratinocyte proliferation using Ki-67 staining and keratinocyte differentiation using filaggrin, desmoglein-1 and involucrin staining.
Size of the epidermis and the expression of the protein junction desmoglein-1 (DSG1), involucrin (IVL) and filaggrin (FLG) was assessed by immunostaining and compared to untreated control. […]

[2] = cited from earlier work; for Cmax: maximal plasma concentration after a single daily-recommended dose, human; for Unbound concentration: unbound plasma concentration, identified or calculated from Cmax and unbound fraction; for Unbound fraction: unbound to plasma protein
[3] = most frequent cutaneous adverse reaction reported by the FDA Adverse Event Reporting System; cited from earlier work
desmoglein-1 (DSG1) [4] = assay: 3D micro-epidermis model (EpiScreen): desmoglein-1 immunostaining; type: cell-based, human; conditions: for activation at 0.01 µM / activation at 0.1 µM: Homo sapiens, 72 h; for activation at 0.01 µM: 10 nM, read-out: DSG 10 nM; for DSG-1 expression: Table 1 summary; for activation at 0.1 µM: read-out: DSG 100 nM
Procedure: as §1, §2, §3, §4
The effect of 8 oncology molecules, selected from first generation EGFRi and pan-kinase inhibitors which mostly target VEGFR and second and third generation therapies targeting main mutations relating to first generation treatment resistance, were assessed in vitro using a 3D micro-epidermis model. The drug incubation concentrations (3, 10, 30, 100 nM) were selected to reflect the clinically relevant (unbound) drug exposures (Table 2). The drug impact was assessed by analysis of tissue size and keratinocyte proliferation using Ki-67 staining and keratinocyte differentiation using filaggrin, desmoglein-1 and involucrin staining. […]

filaggrin (FLG) = assay: 3D micro-epidermis model (EpiScreen): filaggrin immunostaining; type: cell-based, human; conditions: for activation at 0.01 µM / activation at 0.1 µM / activation at 1 µM: Homo sapiens, 72 h; for FLG expression: Table 1 summary;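 as to all read-outs here: human primary epidermal keratinocytes differentiated in high calcium into 3D micro-epidermises, compound-treated for three days, imaged by confocal high-content microscopy, filaggrin staining intensity quantified within actin-segmented structures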
desmoglein-1 (DSG1) [5] = assay: 3D micro-epidermis model (EpiScreen): desmoglein-1 immunostaining; type: cell-based, human; conditions: supplementary data, Tox = toxic; for activation at 1 µM: Homo sapiens, 72 h, read-out: DSG 1 μM
[6] = Table 1 summary of drug effect on epidermis
[7] = Table 1 summary, pro-differentiation / pro-proliferation
[8] = Table 3, 30 nM (EGFRi) or 100 nM (VEGFRi), 3 days, vs untreated control, superscript = significance footnote
[9] = Table 3, pro-proliferation or pro-differentiation
[10] = 100 nM, supplementary data, two runs, Tox = toxic
[11] = 100 nM, supplementary data, Tox = toxic
[12] = 10 nM, supplementary data, two runs, read-out: FLG 10 nM
[13] = supplementary data, two runs, Tox = toxic
[14] = 1 μM, supplementary data, two runs, Tox = toxic
[15] = 100 nM, supplementary data, two runs, Tox = toxic, read-out: FLG 100 nM

Structure (SMILES)	effect on desmoglein-1, involucrin and filaggrin expression (dose dependence) [1]	Epidermis size [1, 6]	Classification [1, 7]	Epidermis size [1, 8]	Classification [1, 9]	Dose in response ([1]; Table 3)	Dose/response [1]	IVL 3 nM (involucrin (IVL); supplementary data) [%]	IVL 10 nM (involucrin (IVL); supplementary data, two runs) [%]	IVL 30 nM (involucrin (IVL); supplementary data) [%]	IVL expression (involucrin (IVL))	IVL 10 μM (involucrin (IVL); [13])	activation at 0.1 µM (involucrin (IVL); [10]) [%]	activation at 1 µM (involucrin (IVL); [14]) [%]	activation at 0.1 µM (desmoglein-1 (DSG1) [4]; [11]) [%]	DSG 10 μM (desmoglein-1 (DSG1) [5])	activation at 1 µM (desmoglein-1 (DSG1) [5]; 1 μM) [%]	FLG 10 μM (filaggrin (FLG); [13])	activation at 0.1 µM (filaggrin (FLG); [15]) [%]	activation at 1 µM (filaggrin (FLG); [14]) [%]	also measured
COc1cc2ncnc(Nc3ccc(F)c(Cl)c3)c2cc1NC(=O)/C=C/CN1CCCCC1 [Dacomitinib]	dose-dependent manner	Decreased	Pro-differentiation	Unchanged^4	Pro-	Yes	Yes (DSG, IVL,	15	31	60	Increased										Toxicity at 1 μM ([1]; 1 μM, micro-epidermis): Yes; IVL 100 nM (involucrin (IVL); [10]): Tox; Cmax [2]: 0.177 µM; Unbound concentration [2]: 0.42 nM and 0.425* nM; Unbound fraction [2]: 0.24%; Major Skin Effect [3]: Rash; DSG 3 nM (desmoglein-1 (DSG1) [4]; supplementary data): 10.00%; DSG 30 nM (desmoglein-1 (DSG1) [4]; supplementary data): 54%; DSG 100 nM (desmoglein-1 (DSG1) [4]; [11]): Tox; activation at 0.01 µM (desmoglein-1 (DSG1) [4]; supplementary data): 32%; DSG-1 expression (desmoglein-1 (DSG1) [4]): Increased; FLG 3 nM (filaggrin (FLG); supplementary data): 8%; FLG 30 nM (filaggrin (FLG); supplementary data): 31%; FLG 100 nM (filaggrin (FLG); [10]): Tox; activation at 0.01 µM (filaggrin (FLG); [12]): 25%; FLG expression (filaggrin (FLG)): Increased
CCCS(=O)(=O)Nc1ccc(F)c(C(=O)c2c[nH]c3ncc(-c4ccc(Cl)cc4)cc23)c1F [Vemurafenib]												−40%	-11	-24	-26	−58%	-33	126%	23	65	
CC(=O)Nc1ccc(O)cc1 [Acetaminophen]				Unchanged^4	Unchanged	No	No					10% and 8%									impact on all measured parameters / epidermis development [1]: no effect
Cc1ccnc2c1NC(=O)c1cccnc1N2C1CC1 [Nevirapine]							Yes (DSG)					20%	17	15	-8	−28%	-15	2%	7	8	
COc1cc2ncnc(Nc3ccc(F)c(Cl)c3)c2cc1OCCCN1CCOCC1 [Gefitinib]	increased in a dose-dependent manner only the expression of desmoglein-1	Unchanged	Pro-differentiation	Unchanged^4	Pro-	Yes	Yes (DSG)	23	8	23	Increased		29		41						Toxicity at 1 μM [1]: Yes; Cmax [2]: 0.356 µM; Unbound fraction [2]: 3.4%**; DSG 3 nM (desmoglein-1 (DSG1) [4]; supplementary data): −8%; DSG 30 nM (desmoglein-1 (DSG1) [4]; supplementary data): 15%; activation at 0.01 µM (desmoglein-1 (DSG1) [4]; supplementary data): 0%; DSG-1 expression (desmoglein-1 (DSG1) [4]): Increased; FLG 3 nM (filaggrin (FLG); supplementary data): 10%; FLG 30 nM (filaggrin (FLG); supplementary data): 5%; activation at 0.01 µM (filaggrin (FLG); read-out: FLG 10 nM, 10 nM, supplementary data, two runs): 3%; activation at 0.1 µM (filaggrin (FLG); read-out: FLG 100 nM, 100 nM, supplementary data, two runs, Tox = toxic): 28%; FLG expression (filaggrin (FLG)): Increased
CNC(=O)c1ccc(N2C(=S)N(c3ccc(C#N)c(C(F)(F)F)c3)C(=O)C2(C)C)cc1F [Enzalutamide]							No					2%	9.3	6.2	-6	−12%	-6	−1%	2	9.8	
C=CC(=O)Nc1cc(Nc2nccc(-c3cn(C)c4ccccc34)n2)c(OC)cc1N(C)CCN(C)C [Osimertinib]	did not affect	Unchanged	Unchanged	Unchanged^4	Unchanged	No	No	6	8	7	Unchanged	Tox	20		18	Tox		Tox	16		impact on all measured parameters / epidermis development [1]: did not show any impact; also recorded: no impact; IVL 1 μM (involucrin (IVL); [14]): Tox; Cmax [2]: 0.627 µM; Unbound concentration [2]: 8.2764 nM; Unbound fraction [2]: 1.32%*; DSG 3 nM (desmoglein-1 (DSG1) [4]; supplementary data): −3%; DSG 30 nM (desmoglein-1 (DSG1) [4]; supplementary data): 7%; activation at 0.01 µM (desmoglein-1 (DSG1) [4]; supplementary data): -7%; DSG-1 expression (desmoglein-1 (DSG1) [4]): Unchanged; DSG 1 μM (desmoglein-1 (DSG1) [5]; 1 μM): Tox; FLG 3 nM (filaggrin (FLG); supplementary data): −12%; FLG 30 nM (filaggrin (FLG); supplementary data): 2%; FLG 1 μM (filaggrin (FLG); [14]): Tox; activation at 0.01 µM (filaggrin (FLG); [12]): -6%; FLG expression (filaggrin (FLG)): Unchanged
CC#CC(=O)N1CCC[C@H]1c1nc(-c2ccc(C(=O)Nc3ccccn3)cc2)c2c(N)nccn12 [Acalabrutinib]												25%	11	15	-26	−7.50%	-15	33%	6	15	
COc1cc2c(Nc3ccc(Br)cc3F)ncnc2cc1OCC1CCN(C)CC1 [Vandetanib]													25	51	5		30				
